# Measurements as given in patent US10966978B2, “Dose and regimen for HDM2-p53 interaction inhibitors” (Novartis AG, priority 2016, dated 2021).
# Like-named read-outs stand apart in the source and are kept apart here.
# System: patients with advanced TP53 wild-type (WT) leukemias
smiles,measurement,setting,value
"COc1ncc(-c2nc3c(n2C(C)C)[C@H](c2ccc(Cl)cc2)N(c2cc(Cl)cn(C)c2=O)C3=O)c(OC)n1 [HDM201, (S)-5-(5-Chloro-1-methyl-2-oxo-1,2-dihydro-pyridin-3-yl)-6-(4-chloro-phenyl)-2-(2,4-dimethoxy-pyrimidin-5-yl)-1-isopropyl-5,6-dihydro-1H-pyrrolo[3,4-d]imidazol-4-one]",AE: Fatigue,"Regimen 1A N = 16, All Grades",4 (25.0) n (%)
same,AE: Febrile Neutropenia,"Regimen 1A N = 16, All Grades",4 (25.0) n (%)
same,AE: Gamma-Glutamyltransferase Increased,"Regimen 1A N = 16, All Grades",2 (12.5) n (%)
same,AE: General Physical Health Deterioration,"Regimen 1A N = 16, All Grades",2 (12.5) n (%)
same,AE: Gingival Bleeding,"Regimen 1A N = 16, All Grades",2 (12.5) n (%)
same,AE: Graft Versus Host Disease,"Regimen 1A N = 16, All Grades",1 (6.3) n (%)
same,AE: Haemoglobin Decreased,"Regimen 1A N = 16, All Grades",1 (6.3) n (%)
same,AE: Headache,"Regimen 1A N = 16, All Grades",1 (6.3) n (%)
same,AE: Hyperbilirubinaemia,"Regimen 1A N = 16, All Grades",1 (6.3) n (%)
same,AE: Hyperglycaemia,"Regimen 1A N = 16, All Grades",1 (6.3) n (%)
same,AE: Hyperkalaemia,"Regimen 1A N = 16, All Grades",0 n (%)
same,AE: Hyperphosphataemia,"Regimen 1A N = 16, All Grades",1 (6.3) n (%)
same,AE: Hyperuricaemia,"Regimen 1A N = 16, All Grades",2 (12.5) n (%)
same,AE: Hypoalbuminaemia,"Regimen 1A N = 16, All Grades",1 (6.3) n (%)
same,AE: Hypocalcaemia,"Regimen 1A N = 16, All Grades",2 (12.5) n (%)
same,AE: Hypokalaemia,"Regimen 1A N = 16, All Grades",0 n (%)
same,AE: Hypomagnesaemia,"Regimen 1A N = 16, All Grades",1 (6.3) n (%)
same,AE: Hyponatraemia,"Regimen 1A N = 16, All Grades",1 (6.3) n (%)
same,AE: Hypophosphataemia,"Regimen 1A N = 16, All Grades",2 (12.5) n (%)
same,AE: Hypotension,"Regimen 1A N = 16, All Grades",1 (6.3) n (%)
same,AE: Infection,"Regimen 1A N = 16, All Grades",1 (6.3) n (%)
same,AE: Infective Glossitis,"Regimen 1A N = 16, All Grades",0 n (%)
same,AE: Iron Overload,"Regimen 1A N = 16, All Grades",1 (6.3) n (%)
same,AE: Leukopenia,"Regimen 1A N = 16, All Grades",2 (12.5) n (%)
same,AE: Lip Oedema,"Regimen 1A N = 16, All Grades",1 (6.3) n (%)
same,AE: Lipase Increased,"Regimen 1A N = 16, All Grades",3 (18.8) n (%)
same,AE: Macular Oedema,"Regimen 1A N = 16, All Grades",0 n (%)
same,AE: Malaise,"Regimen 1A N = 16, All Grades",1 (6.3) n (%)
same,AE: Mouth Haemorrhage,"Regimen 1A N = 16, All Grades",2 (12.5) n (%)
same,AE: Nausea,"Regimen 1A N = 16, All Grades",10 (62.5) n (%)
same,AE: Neutropenia/Neutrophil Count Decreased,"Regimen 1A N = 16, All Grades",6 (37.5) n (%)
same,AE: Oedema,"Regimen 1A N = 16, All Grades",1 (6.3) n (%)
same,AE: Oral Disorder,"Regimen 1A N = 16, All Grades",1 (6.3) n (%)
same,AE: Pain In Extremity,"Regimen 1A N = 16, All Grades",1 (6.3) n (%)
same,AE: Pancytopenia,"Regimen 1A N = 16, All Grades",0 n (%)
same,AE: Pneumonia,"Regimen 1A N = 16, All Grades",1 (6.3) n (%)
same,AE: Pollakiuria,"Regimen 1A N = 16, All Grades",1 (6.3) n (%)
same,AE: Pyrexia,"Regimen 1A N = 16, All Grades",3 (18.8) n (%)
same,AE: Rash,"Regimen 1A N = 16, All Grades",1 (6.3) n (%)
same,AE: Rash Erythematous,"Regimen 1A N = 16, All Grades",1 (6.3) n (%)
same,AE: Rash Papular,"Regimen 1A N = 16, All Grades",1 (6.3) n (%)
same,AE: Rectal Haemorrhage,"Regimen 1A N = 16, All Grades",0 n (%)
same,AE: Renal Failure,"Regimen 1A N = 16, All Grades",0 n (%)
same,AE: Skin Exfoliation,"Regimen 1A N = 16, All Grades",1 (6.3) n (%)
same,AE: Stomatitis,"Regimen 1A N = 16, All Grades",1 (6.3) n (%)
same,AE: Subarachnoid Haemorrhage,"Regimen 1A N = 16, All Grades",1 (6.3) n (%)
same,AE: Thrombocytopenia/Platelet Count Decreased,"Regimen 1A N = 16, All Grades",8 (50.0) n (%)
same,AE: Total,"Regimen 1A N = 16, All Grades",15 (93.8) n (%)
same,AE: Tumour Lysis Syndrome,"Regimen 1A N = 16, All Grades",7 (43.8) n (%)
same,AE: Vomiting,"Regimen 1A N = 16, All Grades",5 (31.3) n (%)
same,AE: Weight Decreased,"Regimen 1A N = 16, All Grades",1 (6.3) n (%)
same,AE: White Blood Cell Count Decreased,"Regimen 1A N = 16, All Grades",1 (6.3) n (%)
same,AE: Abdominal Discomfort,"Regimen 1A N = 16, Grade 3/4",0 n (%)
same,AE: Abdominal Pain,"Regimen 1A N = 16, Grade 3/4",0 n (%)
same,AE: Abdominal Pain Upper,"Regimen 1A N = 16, Grade 3/4",0 n (%)
same,AE: Acute Kidney Injury,"Regimen 1A N = 16, Grade 3/4",0 n (%)
same,AE: Amylase Increased,"Regimen 1A N = 16, Grade 3/4",0 n (%)
same,AE: Anaemia,"Regimen 1A N = 16, Grade 3/4",4 (25.0) n (%)
same,AE: Arthralgia,"Regimen 1A N = 16, Grade 3/4",0 n (%)
same,AE: Asthenia,"Regimen 1A N = 16, Grade 3/4",0 n (%)
same,AE: Atrial Fibrillation,"Regimen 1A N = 16, Grade 3/4",0 n (%)
same,AE: Atypical Pneumonia,"Regimen 1A N = 16, Grade 3/4",0 n (%)
same,AE: Balanitis Candida,"Regimen 1A N = 16, Grade 3/4",0 n (%)
same,AE: Blood Alkaline Phosphatase Increased,"Regimen 1A N = 16, Grade 3/4",0 n (%)
same,AE: Blood Bilirubin Increased,"Regimen 1A N = 16, Grade 3/4",0 n (%)
same,AE: Blood Creatinine Increased,"Regimen 1A N = 16, Grade 3/4",0 n (%)
same,AE: Blood Phosphorus Increased,"Regimen 1A N = 16, Grade 3/4",0 n (%)
same,AE: Blood Uric Acid Increased,"Regimen 1A N = 16, Grade 3/4",1 (6.3) n (%)
same,AE: Bone Marrow Failure,"Regimen 1A N = 16, Grade 3/4",0 n (%)
same,AE: C-Reactive Protein Increased,"Regimen 1A N = 16, Grade 3/4",0 n (%)
same,AE: Cardiac Failure,"Regimen 1A N = 16, Grade 3/4",0 n (%)
same,AE: Cellulitis,"Regimen 1A N = 16, Grade 3/4",0 n (%)
same,AE: Chronic Graft Versus Host Disease,"Regimen 1A N = 16, Grade 3/4",1 (6.3) n (%)
same,AE: Conjunctival Haemorrhage,"Regimen 1A N = 16, Grade 3/4",0 n (%)
same,AE: Constipation,"Regimen 1A N = 16, Grade 3/4",0 n (%)
same,AE: Cough,"Regimen 1A N = 16, Grade 3/4",0 n (%)
same,AE: Cystitis Viral,"Regimen 1A N = 16, Grade 3/4",0 n (%)
same,AE: Cytomegalovirus Infection,"Regimen 1A N = 16, Grade 3/4",0 n (%)
same,AE: Decreased Appetite,"Regimen 1A N = 16, Grade 3/4",0 n (%)
same,AE: Diarrhoea,"Regimen 1A N = 16, Grade 3/4",0 n (%)
same,AE: Dyspepsia,"Regimen 1A N = 16, Grade 3/4",0 n (%)
same,AE: Dyspnoea,"Regimen 1A N = 16, Grade 3/4",1 (6.3) n (%)
same,AE: Epistaxis,"Regimen 1A N = 16, Grade 3/4",0 n (%)
same,AE: Fatigue,"Regimen 1A N = 16, Grade 3/4",0 n (%)
same,AE: Febrile Neutropenia,"Regimen 1A N = 16, Grade 3/4",4 (25.0) n (%)
same,AE: Gamma-Glutamyltransferase Increased,"Regimen 1A N = 16, Grade 3/4",1 (6.3) n (%)
same,AE: General Physical Health Deterioration,"Regimen 1A N = 16, Grade 3/4",0 n (%)
same,AE: Gingival Bleeding,"Regimen 1A N = 16, Grade 3/4",0 n (%)
same,AE: Graft Versus Host Disease,"Regimen 1A N = 16, Grade 3/4",0 n (%)
same,AE: Haemoglobin Decreased,"Regimen 1A N = 16, Grade 3/4",0 n (%)
same,AE: Headache,"Regimen 1A N = 16, Grade 3/4",0 n (%)
same,AE: Hyperbilirubinaemia,"Regimen 1A N = 16, Grade 3/4",0 n (%)
same,AE: Hyperglycaemia,"Regimen 1A N = 16, Grade 3/4",0 n (%)
same,AE: Hyperkalaemia,"Regimen 1A N = 16, Grade 3/4",0 n (%)
same,AE: Hyperphosphataemia,"Regimen 1A N = 16, Grade 3/4",0 n (%)
same,AE: Hyperuricaemia,"Regimen 1A N = 16, Grade 3/4",1 (6.3) n (%)
same,AE: Hypoalbuminaemia,"Regimen 1A N = 16, Grade 3/4",0 n (%)
same,AE: Hypocalcaemia,"Regimen 1A N = 16, Grade 3/4",0 n (%)
same,AE: Hypokalaemia,"Regimen 1A N = 16, Grade 3/4",0 n (%)
same,AE: Hypomagnesaemia,"Regimen 1A N = 16, Grade 3/4",0 n (%)
same,AE: Hyponatraemia,"Regimen 1A N = 16, Grade 3/4",0 n (%)
same,AE: Hypophosphataemia,"Regimen 1A N = 16, Grade 3/4",2 (12.5) n (%)
same,AE: Hypotension,"Regimen 1A N = 16, Grade 3/4",0 n (%)
same,AE: Infection,"Regimen 1A N = 16, Grade 3/4",1 (6.3) n (%)
same,AE: Infective Glossitis,"Regimen 1A N = 16, Grade 3/4",0 n (%)
